Data on 1 substance can be found in patent US20230104578A1, “ANTI-ADRENOMEDULLIN (ADM) ANTIBODY OR ANTI-ADM ANTIBODY FRAGMENT OR ANTI-ADM NON-IG SCAFFOLD FOR USE IN THERAPY OR PREVENTION OF SHOCK” (ADRENOMED AG, priority 2020, published 2023).

In experiment [1] the test system is patients with septic shock. In words: AdrenOSS-2 phase II clinical trial in septic shock with elevated adrenomedullin. It is filed as in vivo, human. The source says: AdrenOSS-2 is a double-blind, placebo-controlled, randomized, multicenter, proof of concept and dose-finding phase II clinical trial to investigate the safety, tolerability and efficacy of the N-terminal ADM antibody named Adrecizumab in patients with septic shock and elevated adrenomedullin (Geven et al. BMJ Open 2019;9:e024475). In total, 301 patients with septic shock and bio-ADM concentration >70 pg/mL were randomized (2:1:1) to treatment with a single intravenous infusion over approximately 1 hour with either placebo (n=152), adrecizumab 2 ng/kg (n=72) or adrecizumab 4 ng/kg (n=77). All-cause mortality within 28 (90) days after inclusion was 25.8% (34.8%). Mean age was 68.4 years and 61% were male. For the per protocol analysis, n=294 patients remained eligible, and 14-day all-cause mortality rate was 18.5%.
In patients treated with Adrecizumab (both doses combined, per protocol population), a trend to lower short term mortality (14 days post admission) was observed compared to placebo (Hazard ratio (HR) 0.701 [0.408-1.21], p=0.100) (FIG. 8).
No such interaction was detected which in other words means, that the beneficial treatment effect was detectable for all patients independent of their pre-dose bio-ADM concentration.
This is further illustrated in Kaplan Meier Plots, where the patient populations were separated by their pre-dose bio-ADM concentration (below/above bio-ADM median) (see FIG. 11a and FIG. 11b).

Another experiment concerns endotoxemic rats. Conditions: pre-treatment; cited from earlier work.
In experiment [2] the test system is mice with CLP-induced sepsis. The conditions noted are these: pre-treatment; cited from earlier work.

Regarding “Adrecizumab: humanized version of an N-terminal anti-ADM antibody; heavy chain SEQ ID NO: 32, light chain SEQ ID NO: 33”, the “HR, 14-day mortality vs placebo” value in experiment [1] (DPP3 above 50 ng/mL, n=44) came to 1.69; in experiment [1] (pre-dose DPP3 < 50 ng/mL, n=244), 0.426; in experiment [1] (pre-dose DPP3 < 40, n=227), 0.385; in experiment [1] (pre-dose DPP3 < 60, n=254), 0.449; in experiment [1] (pre-dose DPP3 < 70, n=261) it was 0.546; in experiment [1] (pre-dose DPP3 < 90, n=273), 0.606. Besides, the renal vascular leakage result (with endotoxemic rats; in experiment [2]) was “attenuated renal vascular leakage” in each case.
